Data as given in article PMC12207370, “Macrocyclic Peptide Probes for Immunomodulatory Protein CD59: Potent Modulators of Bacterial Toxin Activity and Antibody‐Dependent Cytotoxicity” (Angewandte Chemie (International Ed. in English), 2025).
Like-named read-outs stand apart in the source and are kept apart here. Peptide text beside a SMILES is read from it.

Biological target: T1, CD59 (Homo sapiens, UniProt P13987)
T1 construct: Recombinant soluble human CD59 with an additional C-terminal cysteine residue
T1 sequence (P13987 26-102 limits assumed): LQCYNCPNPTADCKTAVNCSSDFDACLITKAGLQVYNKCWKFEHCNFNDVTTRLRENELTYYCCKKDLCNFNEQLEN
Experiment: SPR (Biacore S200) binding to immobilised biotinylated CD59
Conditions: for Kd: Ala scan of CP-06, SPR, n = 1
From the text: To identify which of these peptides bound CD59 most tightly, we used a Biacore S200 surface plasmon resonance (SPR) platform to investigate CD59 affinity (Figure 2b), using a known protein binding partner of CD59 (rILYd4) as a benchmark. Four 13‐mer macrocyclic peptides and one 14‐mer macrocyclic peptide were identified with a dissociation constant (K D) lower than that of rILYd4. Considering their fourfold lower molecular weight, these peptides bind with up to 19‐fold greater efficiency compared to rILYd4 (Figure 2b).
Equipment: SPR analysis was performed on a Cytiva Biacore S200. All buffers were prepared using ultra-pure water from a Millipore Elix Q-Gard purification system. Solutions and buffers were filtered with a 0.22 μm filter and degassed prior to use. The assays were performed on Series S streptavidin (SA) sensor chip (Cytiva). PBS-P+ buffer 10X (0.2 M phosphate buffer with 27 mM KCl, 1.37 M NaCl and 0.5% Surfactant P20 (Tween 20)) was used for the preparation of the assay running buffer (PBS-P+ 1X).
Immobilisation of CD59-biotin: Biotinylated CD59 was immobilised on the surface of a SA chip by non-covalent capture (biotin streptavidin interaction) as per the manufacturer’s instructions. The system was initially primed with running buffer and normalised using BIAnormalizing solution (70% (w/w) glycerol) (Cytiva). Before immobilising the protein, the surface was conditioned with three consecutive one-minute injections of 1 M NaCl in 50 mM NaOH. Biotinylated CD59 (0.5 µg/mL in running buffer) was flowed over the protein (active) channel for different contact times to achieve different immobilisation levels (600–1200 RU). After each protein injection, the needle and injection loop were washed using 50% isopropanol in 1 M NaCl and 50 mM NaOH. A reference channel was prepared by similar treatment; however, running buffer alone rather than CD59-biotin in running buffer was flowed over the chip the same way.
Interaction analysis: Multicycle kinetic and affinity approach was used for the analysis of peptides interactions with CD59. Two-fold serial dilutions of each peptide were prepared in running buffer and were flowed over both the ligand and reference channel using a flow rate (30 μL/min) at 25 °C. A zero concentration was added to each analyte series and three cycles of buffer were run between analytes to restore the baseline. The obtained sensorgrams were analysed using the embedded Biacore S200 Evaluation software. The data were normalised by subtracting RU values of the reference channel and zero concentration of the analyte series. Kinetic rate constants (kon and koff) were determined by fitting the normalised data using the built-in Kinetic analysis model (non-linear regression with a 1:1 Langmuir binding model), KD values were then calculated from the two rate constants ([…]). The KD values were determined again by fitting the normalised data using the built-in Affinity analysis model (1:1 Langmuir binding model).

SMILES | Kd (read-out: PKD (converted)) | Kd (read-out: KD) | fold decrease in KD (fold loss in binding affinity) (Ala scan vs CP-06, SPR, n = 1, Figure 3b and text) | Fold Change (fold decrease in KD vs CP-06, Ala scan)
C[C@@H]1NC(=O)[C@H](CO)NC(=O)[C@H](CO)NC(=O)[C@H](CCCNC(=N)N)NC(=O)[C@H](CC(N)=O)NC(=O)CNC(=O)[C@H](Cc2c[nH]c3ccccc23)NC(=O)[C@H]([C@@H](C)O)NC(=O)[C@H](Cc2c[nH]c3ccccc23)NC(=O)[C@H](CO)NC(=O)[C@@H](Cc2ccc(O)cc2)NC(=O)CSC[C@@H](C(N)=O)NC(=O)CNC(=O)[C@H](CCCNC(=N)N)NC1=O [CP-06-V11A] (HELM PEPTIDE1{[O=C(C[*:3])[*:2]].[dY].S.W.T.W.G.N.R.S.S.A.R.G.C.[am]}$PEPTIDE1,PEPTIDE1,1:R3-15:R3$$$V2.0) | 0.0302 µM |  |  | 
CC(C)[C@@H]1NC(=O)[C@H](CO)NC(=O)[C@H](C)NC(=O)[C@H](CCCNC(=N)N)NC(=O)[C@H](CC(N)=O)NC(=O)CNC(=O)[C@H](Cc2c[nH]c3ccccc23)NC(=O)[C@H]([C@@H](C)O)NC(=O)[C@H](Cc2c[nH]c3ccccc23)NC(=O)[C@H](CO)NC(=O)[C@@H](Cc2ccc(O)cc2)NC(=O)CSC[C@@H](C(N)=O)NC(=O)CNC(=O)[C@H](CCCNC(=N)N)NC1=O [CP-06-S9A] (HELM PEPTIDE1{[O=C(C[*:3])[*:2]].[dY].S.W.T.W.G.N.R.A.S.V.R.G.C.[am]}$PEPTIDE1,PEPTIDE1,1:R3-15:R3$$$V2.0) |  | 0.022 µM |  | 
CC(C)[C@@H]1NC(=O)[C@H](CO)NC(=O)[C@H](CO)NC(=O)[C@H](CCCNC(=N)N)NC(=O)[C@H](CC(N)=O)NC(=O)CNC(=O)[C@H](Cc2c[nH]c3ccccc23)NC(=O)[C@H]([C@@H](C)O)NC(=O)[C@H](Cc2c[nH]c3ccccc23)NC(=O)[C@H](C)NC(=O)[C@@H](Cc2ccc(O)cc2)NC(=O)CSC[C@@H](C(N)=O)NC(=O)CNC(=O)[C@H](CCCNC(=N)N)NC1=O [CP-06-S2A] (HELM PEPTIDE1{[O=C(C[*:3])[*:2]].[dY].A.W.T.W.G.N.R.S.S.V.R.G.C.[am]}$PEPTIDE1,PEPTIDE1,1:R3-15:R3$$$V2.0) |  | 0.013 µM |  | 
CC(C)[C@@H]1NC(=O)[C@H](CO)NC(=O)[C@H](CO)NC(=O)[C@H](CCCNC(=N)N)NC(=O)[C@H](CC(N)=O)NC(=O)CNC(=O)[C@H](Cc2c[nH]c3ccccc23)NC(=O)[C@H]([C@@H](C)O)NC(=O)[C@H](C)NC(=O)[C@H](CO)NC(=O)[C@@H](Cc2ccc(O)cc2)NC(=O)CSC[C@@H](C(N)=O)NC(=O)CNC(=O)[C@H](CCCNC(=N)N)NC1=O [CP-06-W3A] (HELM PEPTIDE1{[O=C(C[*:3])[*:2]].[dY].S.A.T.W.G.N.R.S.S.V.R.G.C.[am]}$PEPTIDE1,PEPTIDE1,1:R3-15:R3$$$V2.0) |  | 1.2 µM |  | 
CC(C)[C@@H]1NC(=O)[C@H](CO)NC(=O)[C@H](CO)NC(=O)[C@H](CCCNC(=N)N)NC(=O)[C@H](CC(N)=O)NC(=O)CNC(=O)[C@H](Cc2c[nH]c3ccccc23)NC(=O)[C@H]([C@@H](C)O)NC(=O)[C@H](Cc2c[nH]c3ccccc23)NC(=O)[C@H](CO)NC(=O)[C@@H](Cc2ccc(O)cc2)NC(=O)CSC[C@@H](C(N)=O)NC(=O)[C@H](C)NC(=O)[C@H](CCCNC(=N)N)NC1=O [CP-06-G13A] (HELM PEPTIDE1{[O=C(C[*:3])[*:2]].[dY].S.W.T.W.G.N.R.S.S.V.R.A.C.[am]}$PEPTIDE1,PEPTIDE1,1:R3-15:R3$$$V2.0) |  | 0.678 µM |  | 
CC(C)[C@@H]1NC(=O)[C@H](CO)NC(=O)[C@H](CO)NC(=O)[C@H](CCCNC(=N)N)NC(=O)[C@H](CC(N)=O)NC(=O)CNC(=O)[C@H](Cc2c[nH]c3ccccc23)NC(=O)[C@H]([C@@H](C)O)NC(=O)[C@H](Cc2c[nH]c3ccccc23)NC(=O)[C@H](CO)NC(=O)[C@H](C)NC(=O)CSC[C@@H](C(N)=O)NC(=O)CNC(=O)[C@H](CCCNC(=N)N)NC1=O [CP-06-d-Y1A] (HELM PEPTIDE1{[O=C(C[*:3])[*:2]].A.S.W.T.W.G.N.R.S.S.V.R.G.C.[am]}$PEPTIDE1,PEPTIDE1,1:R3-15:R3$$$V2.0) | 0.676 µM | 0.668 µM | ~60 fold | 61
